Legend:
[1] = Selectivity ratio of IC50 for TCPTP to IC50 for PTP1B
[2] = target: T1, Tyrosine-protein phosphatase non-receptor type 1 (Homo sapiens, UniProt P18031); test: Inhibition of PTP1B
T1 sequence (P18031 whole entry): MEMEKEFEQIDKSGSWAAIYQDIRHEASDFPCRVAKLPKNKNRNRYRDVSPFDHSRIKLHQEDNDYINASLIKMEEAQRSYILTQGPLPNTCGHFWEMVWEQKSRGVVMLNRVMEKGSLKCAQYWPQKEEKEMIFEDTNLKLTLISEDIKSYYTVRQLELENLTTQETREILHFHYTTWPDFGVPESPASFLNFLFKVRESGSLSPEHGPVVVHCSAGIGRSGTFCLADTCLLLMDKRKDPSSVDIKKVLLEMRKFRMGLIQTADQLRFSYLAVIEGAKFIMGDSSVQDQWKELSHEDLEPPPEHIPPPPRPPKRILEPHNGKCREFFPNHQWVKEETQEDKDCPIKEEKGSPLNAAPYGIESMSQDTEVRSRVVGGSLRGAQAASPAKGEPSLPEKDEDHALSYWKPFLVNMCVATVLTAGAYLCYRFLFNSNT

[3] = target: T2, Tyrosine-protein phosphatase non-receptor type 2 (Homo sapiens, UniProt P17706); test: Inhibition of TCPTP
T2 sequence (P17706 whole entry): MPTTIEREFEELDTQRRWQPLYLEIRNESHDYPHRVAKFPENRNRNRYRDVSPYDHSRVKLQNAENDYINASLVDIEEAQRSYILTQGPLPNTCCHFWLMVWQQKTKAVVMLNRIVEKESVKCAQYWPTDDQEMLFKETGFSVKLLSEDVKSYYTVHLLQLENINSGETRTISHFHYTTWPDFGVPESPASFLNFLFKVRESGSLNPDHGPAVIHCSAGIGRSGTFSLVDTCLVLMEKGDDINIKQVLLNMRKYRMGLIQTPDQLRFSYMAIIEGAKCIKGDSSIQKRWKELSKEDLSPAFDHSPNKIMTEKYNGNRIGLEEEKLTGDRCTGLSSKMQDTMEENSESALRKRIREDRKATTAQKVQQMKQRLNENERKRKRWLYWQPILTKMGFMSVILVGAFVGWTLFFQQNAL

[4] = Selectivity ratio of Ki for TCPTP to Ki for PTP1B
[5] = Permeability across human Caco-2 cell membrane; format: ADME, cell-based; settings: read-out: permeability
[6] = target: Receptor-type tyrosine-protein phosphatase beta (Homo sapiens, UniProt P23467); test: Inhibition of human protein-tyrosine phosphatase beta
[7] = target: T1, Tyrosine-protein phosphatase non-receptor type 1; test: Inhibition of PTP1B by competitive inhibition assay
C2C12 = test: Augmentation of insulin-stimulated 2-deoxy-D-glucose uptake in mouse C2C12 cells at 100 uM; format: functional

Chain of Receptor-type tyrosine-protein phosphatase beta (P23467 whole entry): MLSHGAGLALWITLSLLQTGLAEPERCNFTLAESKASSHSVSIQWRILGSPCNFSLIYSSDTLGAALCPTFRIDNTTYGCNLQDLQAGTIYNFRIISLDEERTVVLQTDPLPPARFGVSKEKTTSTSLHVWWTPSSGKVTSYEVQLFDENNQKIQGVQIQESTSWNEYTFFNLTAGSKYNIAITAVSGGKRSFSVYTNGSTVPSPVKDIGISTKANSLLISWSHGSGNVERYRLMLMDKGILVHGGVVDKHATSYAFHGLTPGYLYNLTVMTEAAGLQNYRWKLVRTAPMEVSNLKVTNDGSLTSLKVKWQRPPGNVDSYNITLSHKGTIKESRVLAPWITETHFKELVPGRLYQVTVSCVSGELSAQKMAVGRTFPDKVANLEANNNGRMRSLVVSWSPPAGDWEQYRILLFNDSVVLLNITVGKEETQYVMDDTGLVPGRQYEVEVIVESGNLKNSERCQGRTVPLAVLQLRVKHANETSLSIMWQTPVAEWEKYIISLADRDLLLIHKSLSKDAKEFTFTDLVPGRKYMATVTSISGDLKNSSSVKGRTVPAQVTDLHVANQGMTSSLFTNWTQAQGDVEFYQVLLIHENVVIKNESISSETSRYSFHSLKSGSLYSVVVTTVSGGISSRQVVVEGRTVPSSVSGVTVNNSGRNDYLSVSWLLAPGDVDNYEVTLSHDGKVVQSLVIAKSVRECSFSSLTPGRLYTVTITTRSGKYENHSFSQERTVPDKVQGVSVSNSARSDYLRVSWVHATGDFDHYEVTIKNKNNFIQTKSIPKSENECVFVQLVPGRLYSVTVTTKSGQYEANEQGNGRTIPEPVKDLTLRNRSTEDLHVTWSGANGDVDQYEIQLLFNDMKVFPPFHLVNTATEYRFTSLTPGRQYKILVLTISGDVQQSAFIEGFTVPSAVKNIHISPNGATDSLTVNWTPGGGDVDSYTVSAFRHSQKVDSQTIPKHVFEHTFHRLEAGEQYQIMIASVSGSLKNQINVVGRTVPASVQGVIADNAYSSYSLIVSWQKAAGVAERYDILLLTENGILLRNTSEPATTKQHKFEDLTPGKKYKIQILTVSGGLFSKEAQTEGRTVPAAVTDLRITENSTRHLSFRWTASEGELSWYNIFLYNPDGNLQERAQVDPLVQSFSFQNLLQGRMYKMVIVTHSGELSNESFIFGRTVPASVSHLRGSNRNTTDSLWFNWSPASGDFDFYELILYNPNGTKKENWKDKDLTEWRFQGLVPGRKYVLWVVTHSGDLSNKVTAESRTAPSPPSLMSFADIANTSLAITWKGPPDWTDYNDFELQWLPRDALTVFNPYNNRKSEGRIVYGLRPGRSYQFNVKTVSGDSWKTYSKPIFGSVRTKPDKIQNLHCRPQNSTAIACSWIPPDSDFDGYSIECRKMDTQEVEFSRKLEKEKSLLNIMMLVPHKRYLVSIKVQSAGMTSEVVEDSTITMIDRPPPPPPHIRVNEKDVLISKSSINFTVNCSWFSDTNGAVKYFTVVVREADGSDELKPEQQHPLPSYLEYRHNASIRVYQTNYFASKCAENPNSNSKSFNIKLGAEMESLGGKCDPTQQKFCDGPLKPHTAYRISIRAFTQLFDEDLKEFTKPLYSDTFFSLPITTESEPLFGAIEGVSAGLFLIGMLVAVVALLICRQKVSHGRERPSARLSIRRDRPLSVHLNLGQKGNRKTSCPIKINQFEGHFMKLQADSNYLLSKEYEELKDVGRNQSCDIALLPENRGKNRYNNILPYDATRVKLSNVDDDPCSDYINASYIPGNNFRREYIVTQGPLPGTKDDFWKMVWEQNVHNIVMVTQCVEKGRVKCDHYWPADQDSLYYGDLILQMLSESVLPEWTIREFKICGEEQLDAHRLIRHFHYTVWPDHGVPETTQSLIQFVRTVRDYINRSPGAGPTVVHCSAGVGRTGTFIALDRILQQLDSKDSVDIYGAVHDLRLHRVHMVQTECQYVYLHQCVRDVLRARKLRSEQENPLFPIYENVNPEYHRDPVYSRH

CNC(=O)[C@@H]1Cc2ccc(NS(=O)(=O)O)cc2CN1C(=O)CCc1cccc(NS(=O)(=O)O)c1
Ratio IC50 [1]: 1.9

CCC(CC)c1ccc(N(Cc2cccc(-c3ccc(COc4ccc(C[C@H](NC(C)=O)C(=O)O)cc4)cc3)c2)C(C)C)cc1
IC50 [2]: 16 nM

O=S(=O)(O)C(F)(F)c1cccc(-c2ccc(-c3ccccc3)cc2)c1
IC50 [2]: 8000 nM

CS(=O)(=O)OC1C(Cl)CCCC1Cc1ccc(N2CC(=O)CS2(=O)=O)c(O)c1 (centres undefined)
IC50 [2]: 12.6 nM

Cc1cc(C[C@H](NS(=O)(=O)c2ccccc2)c2nc3ccccc3[nH]2)ccc1N1CC(=O)NS1(=O)=O
IC50 [3]: 150 nM

NC(=O)[C@H](Cc1ccc(C(F)(F)P(=O)(O)O)cc1)NC(=O)[C@H](CC(=O)O)NC(=O)Cc1ccc(C(F)(F)P(=O)(O)O)cc1
Ki [3]: 26 nM

COc1ccc2cc(O)c(N3CC(=O)NS3(=O)=O)cc2c1
IC50 [2]: < 30 nM

Cc1cc(CC(NS(=O)(=O)c2cccc(F)c2)C2=N[C@H](CCOc3ccccc3S(C)(=O)=O)CN2)ccc1C1CC(=O)NS1(=O)=O (some centres undefined)
IC50 [2]: 23 nM
IC50 [3]: 25 nM
Ratio IC50 [1]: 1

COC(=O)c1c(O)cccc1OCCCCNC(=O)[C@H](Cc1ccc(OC(C(=O)O)C(=O)NC2CC2)cc1)NC(=O)OC(C)(C)C (some centres undefined)
Ki [2]: 8400 nM
Ki [3]: > 200000 nM
Ratio Ki [4]: > 23

Cc1ccccc1S(=O)(=O)N(Cc1ccc(C(=O)C(F)(F)P(=O)(O)O)cc1)Cc1ccc(C(=O)C(F)(F)P(=O)(O)O)cc1
IC50 [2]: 600 nM

COC(=O)c1c(O)cccc1OCCCCNC(=O)[C@H](Cc1ccc(OCC(=O)O)c(O)c1)NC(C)=O
Ratio Ki [4]: 20
Papp [5]: > 10 ×10⁻⁶ cm/s

CN(CCCCCl)P(=O)(OCc1ccc([N+](=O)[O-])o1)C(F)(F)c1ccc(CC(=O)N[C@@H](CC(=O)O)C(=O)N[C@@H](Cc2ccc(C(F)(F)P(=O)(OCc3ccc([N+](=O)[O-])o3)N(C)CCCCCl)cc2)C(=O)ON)cc1 (some centres undefined)
IC50 [2]: > 20000 nM

CN(C)S(=O)(=O)c1ccc(CN(Cc2ccc(C(F)(F)P(=O)(O)O)c(Br)c2)S(=O)(=O)c2ccc(OCC(=O)O)cc2)cc1
IC50 [3]: 28 nM
Ratio IC50 [1]: 1

CCc1csc([C@H](Cc2ccc(NS(=O)(=O)O)cc2)NC(=O)[C@H](CC(C)C)C(=O)OC)n1
IC50 [2]: 70 nM
IC50 [6]: 0.3 nM

COc1cc(/C=C2\SC(=S)N(c3cccc(Cl)c3)C2=O)cc([N+](=O)[O-])c1O
Ratio IC50 [1]: 1.3
Ki [7]: 1800 nM

O=C1C[C@@H](c2ccc(C[C@H](Nc3nc4ccccc4s3)c3nc4ccccc4[nH]3)cc2F)S(=O)(=O)N1
IC50 [3]: 250 nM

O=C1CN(c2c(O)cc(CC3CCCCC3)cc2F)S(=O)(=O)C1
IC50 [2]: 14 nM

N#Cc1ccc2cc(Br)c(C(F)(F)P(=O)(O)O)cc2c1
IC50 [3]: 120 nM

Cc1cc(C[C@H](NS(=O)(=O)c2ccccc2)c2nc3ccccc3[nH]2)ccc1[C@@H]1CC(=O)NS1(=O)=O
IC50 [3]: 25 nM

CCc1cc(C[C@H](NC(C)=O)C(=O)NCCCCOc2cccc(O)c2C(=O)OC)ccc1N(C(=O)C(=O)O)c1ccccc1C(=O)O
Ki [3]: 65 nM

Cc1sc(-c2cccc(NC3CCN(S(=O)(=O)Cc4ccccc4)CC3)c2)cc1C1CC(=O)NS1(=O)=O (centres undefined)
Ki [2]: 4300 nM

Cc1nc(-c2ccc(Cl)cc2)sc1CCc1cccc(C(O)(C(=O)O)C(F)(F)F)c1 (centres undefined)
IC50 [2]: 3200 nM

COC(=O)c1c(O)cccc1OC/C=C/c1cccc(-c2onc(C(=O)O)c2N)c1
IC50 [3]: > 30000 nM

O=C(O)C(=O)Nc1sc2c(c1C(=O)O)CCN[C@H]2CNC(=O)c1cc2cc(F)ccc2[nH]1
Papp [5]: < 1 ×10⁻⁶ cm/s
Activity (C2C12): 70%

O=S(=O)(Nc1ccc(Oc2ccc(Oc3ccc(NS(=O)(=O)C(F)(F)F)cc3)cc2)cc1)C(F)(F)F
IC50 [2]: 2500 nM

— ChEMBL document CHEMBL1157711, “Recent advances in the discovery of competitive protein tyrosine phosphatase 1B inhibitors for the treatment of diabetes, obesity, and cancer” (J Med Chem, 2010)
